{"source": "patent US20040038201A1", "about": "“Diagnostic and therapeutic applications for biomarkers of infection” (Whitehead Institute for Biomedical Research, priority 2002, published 2004)", "molecules": {"B1": {"name": "IL-10: cytokine incubated with macrophages (protein, UniProt P22301 19-178, looked up)", "Interleukin-10": "SPGQGTQSENSCTHFPGNLPNMLRDLRDAFSRVKTFFQMKDQLDNLLLKESLLEDFKGYLGCQALSEMIQFYLEEVMPQAENQDPDIKAHVNSLGENLKTLRLRLRRCHRFLPCENKSKAVEQVKNAFNKLQEKGIYKAMSEFDIFINYIEAYMTMKIRN"}}, "key": {"human macrophages [1]": {"test_system": "human macrophages", "format": "cell-based", "details": "24-hour time course; LPS 1 μg/mL, LTA 10 μg/mL, MDP 100 μg/mL, hsps 10 μg/mL"}, "human macrophages [2]": {"test_system": "human macrophages", "test": "Differential (Gram-negative/TLR4-specific) macrophage gene expression after bacterial components or cytokines, HuFL GeneChips", "format": "cell-based", "details": "for expression pattern of the 101 genes differentially regulated by Gram-negative versus Gram-positive bacteria: LPS 1 μg/mL, LTA 10 μg/mL, MDP 100 μg/mL, fMLP 100 nM; for induction of the TLR4-induced core cluster of genes by cytokines: IFNs at 1000 units/mL"}, "human macrophages [3]": {"test_system": "human macrophages", "test": "IL-12 p40 ELISA of macrophage supernatants", "format": "cell-based", "details": "LPS 1 μg/mL, MDP 100 μg/mL"}, "human macrophages [4]": {"test_system": "human macrophages", "test": "IL-12 p70 ELISA of macrophage supernatants", "format": "cell-based", "details": "LPS 1 μg/mL, MDP 100 μg/mL"}, "human macrophages [5]": {"test_system": "human macrophages", "test": "I-TAC ELISA of macrophage supernatants", "format": "cell-based", "details": "for I-TAC production by macrophages in response to bacterial components: supernatants after 24 hours, LPS 1 μg/mL, MDP 100 μg/mL; for I-TAC production by macrophages in response to IFNs: 100 units/mL IFN"}, "mycobacterial infection": {"test_system": "mycobacterial infection", "details": "supplemental IL-12; cited from earlier work"}, "[6]": {"test_system": "M. abscessus infection, M. tuberculosis infection", "details": "exogenous IL-12 therapy; cited from earlier work"}, "TLR-4": {"molecular_target": "T1, TLR-4 (Homo sapiens, UniProt O00206+Q9Y6Y9)", "T1 construct": "endogenous in cells; host or cells: human monocyte-derived macrophages (primary)", "T1 sequence (O00206 24-839)": "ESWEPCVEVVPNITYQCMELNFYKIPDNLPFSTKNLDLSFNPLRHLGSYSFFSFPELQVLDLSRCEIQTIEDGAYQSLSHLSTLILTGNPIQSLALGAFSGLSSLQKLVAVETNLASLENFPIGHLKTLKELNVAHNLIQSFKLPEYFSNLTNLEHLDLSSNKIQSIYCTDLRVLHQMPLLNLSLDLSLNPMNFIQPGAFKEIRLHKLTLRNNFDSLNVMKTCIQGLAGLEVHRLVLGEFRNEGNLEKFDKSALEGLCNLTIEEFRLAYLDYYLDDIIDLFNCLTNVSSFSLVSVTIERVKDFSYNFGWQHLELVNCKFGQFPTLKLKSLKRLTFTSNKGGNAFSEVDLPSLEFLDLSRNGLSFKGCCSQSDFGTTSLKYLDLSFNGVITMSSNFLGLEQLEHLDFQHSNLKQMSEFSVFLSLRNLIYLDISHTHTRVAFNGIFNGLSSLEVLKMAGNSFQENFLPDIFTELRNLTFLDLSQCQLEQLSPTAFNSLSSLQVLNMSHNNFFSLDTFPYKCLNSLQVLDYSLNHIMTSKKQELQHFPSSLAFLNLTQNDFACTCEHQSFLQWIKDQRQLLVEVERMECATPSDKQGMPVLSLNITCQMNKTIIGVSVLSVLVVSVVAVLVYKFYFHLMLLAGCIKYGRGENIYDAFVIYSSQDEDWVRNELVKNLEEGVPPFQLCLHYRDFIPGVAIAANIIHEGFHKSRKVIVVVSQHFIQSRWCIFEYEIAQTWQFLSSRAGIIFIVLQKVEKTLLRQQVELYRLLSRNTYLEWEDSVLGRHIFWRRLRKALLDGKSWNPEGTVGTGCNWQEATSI", "T1 sequence (Q9Y6Y9 17-160 limits assumed)": "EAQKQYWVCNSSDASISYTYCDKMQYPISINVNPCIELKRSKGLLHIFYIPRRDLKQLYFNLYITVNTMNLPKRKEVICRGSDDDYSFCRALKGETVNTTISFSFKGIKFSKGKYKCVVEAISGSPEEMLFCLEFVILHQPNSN", "test": "TLR-4 antagonist (RSLA) pretreatment, TNF-alpha ELISA of stimulated macrophages", "format": "cell-based", "details": "1 μg/mL RSLA, 30 minutes pretreatment; 10 μg/mL hsp70", "procedure": "FIG. 9 is a graphical representation showing a specific TLR-4 antagonist inhibits production of TNF-alpha by hsp70. Monocytes were plated at […] in 96-well Primaria plates and matured to macrophages as described. Cells were washed with Hank's Balanced Salt Solution incubated overnight in DMEM, 1% human serum, and pretreated for 30 minutes at 37° C. with 1 μg/mL Rhodobacter sphaeroides lipid A (RSLA). RSLA is a specific antagonist of TLR-4. Cells were then stimulated with 0.1 MOI E. coli sd-4, 1 μg/mL LPS, or 10 μg/mL hsp70 to duplicate, and culture media was collected at 0, 2, 6, and 12 hours. ELISAs were performed using manufacturer's protocols."}, "macrophages": {"test_system": "macrophages", "format": "cell-based, human"}, "STAT1": {"test_system": "STAT1", "test": "Phosphorylation of macrophage STAT1", "format": "cell-based, human"}, "dendritic cells": {"test_system": "dendritic cells", "test": "I-TAC production by dendritic cells (ELISA)", "details": "24 hours after exposure to LPS or lipoteichoic acid"}}, "data": [{"molecule": "CC(=O)N[C@H]1C(O)O[C@H](CO)[C@@H](O)[C@@H]1O[C@H](C)C(=O)N[C@@H](C)C(=O)N[C@H](CCC(=O)O)C(N)=O", "note": "(mixture of isomers) [MDP, muramyl dipeptide]", "values": [{"measurement": "induction of the macrophage activation program (gene expression changes)", "setting": "human macrophages [1]", "value": "induced the majority of the activation program"}, {"measurement": "induction of the cluster of nine genes specific to Gram-positive bacteria", "setting": "human macrophages [2]", "value": "insufficient to induce this small cluster of genes"}, {"measurement": "expression pattern of the 101 genes differentially regulated by Gram-negative versus Gram-positive bacteria", "setting": "human macrophages [2]", "value": "induced gene expression changes similar to the Gram-positive organisms"}, {"measurement": "IL-12 p40 secretion by macrophages", "setting": "human macrophages [3]", "value": "elicited"}, {"measurement": "IL-12 p70 production by macrophages in response to bacterial components", "setting": "human macrophages [4]", "value": "did not"}, {"measurement": "I-TAC production by macrophages in response to bacterial components", "setting": "human macrophages [5]", "value": "not"}]}, {"molecule": "IFN-α", "values": [{"measurement": "induction of the TLR4-induced core cluster of genes by cytokines", "setting": "human macrophages [2]", "value": "sufficient to induce the expression of the TLR4-induced core cluster of genes"}, {"measurement": "I-TAC production by macrophages in response to IFNs", "setting": "human macrophages [5]", "value": "sufficient to induce I-TAC production"}]}, {"molecule": "IFN-γ: IFN-γ from R&D Systems", "values": [{"measurement": "induction of the TLR4-induced core cluster of genes by cytokines", "setting": "human macrophages [2]", "value": "sufficient to induce the expression of the TLR4-induced core cluster of genes"}, {"measurement": "I-TAC production by macrophages in response to IFNs", "setting": "human macrophages [5]", "value": "sufficient to induce I-TAC production"}]}, {"molecule": "IL-12: cytokine incubated with macrophages; exogenous IL-12 therapy in cited studies", "values": [{"measurement": "induction of the TLR4-induced core cluster of genes by cytokines", "setting": "human macrophages [2]", "value": "failed to induce comparable gene expression changes"}, {"measurement": "clearance of mycobacterial infection in normal mice", "setting": "mycobacterial infection", "value": "enhances the ability of normal mice to clear a mycobacterial infection"}, {"measurement": "clinical outcome in patients with infections refractory to antibiotics and supplemental IFN-γ", "setting": "[6]", "value": "rescued two patients"}]}, {"molecule": "Rhodobacter sphaeroides lipid A [RSLA]", "values": [{"measurement": "production of TNF-alpha by hsp70-stimulated macrophages after antagonist pretreatment", "setting": "TLR-4", "value": "inhibits"}]}, {"molecule": "formyl-methionine-leucine-phenylalanine [formyl-MetLeuPhe]", "values": [{"measurement": "expression pattern of the 101 genes differentially regulated by Gram-negative versus Gram-positive bacteria", "setting": "human macrophages [2]", "value": "failed to induce expression changes that were characteristic of either class of bacteria"}]}, {"molecule": "hsp70: Recombinant mycobacterial heat shock protein from StressGen", "values": [{"measurement": "induction of the macrophage activation program (gene expression changes)", "setting": "human macrophages [1]", "value": "induced the majority of the activation program"}, {"measurement": "cytokine elicited relative to the endotoxin-equivalent amount of LPS", "setting": "macrophages; 0.06 Eu/mL = 13 pg/mL LPS, 10 μg/mL hsp 70", "value": "3-6 times"}]}, {"molecule": "lipopolysaccharide [LPS]", "values": [{"measurement": "induction of the macrophage activation program (gene expression changes)", "setting": "human macrophages [1]", "value": "induced the majority of the activation program"}, {"measurement": "phosphorylation of macrophage STAT1", "setting": "STAT1", "value": "observed"}, {"measurement": "gene expression changes compared with whole Gram-negative bacteria", "setting": "human macrophages [2]", "value": "less robust in magnitude and duration"}, {"measurement": "expression pattern of the 101 genes differentially regulated by Gram-negative versus Gram-positive bacteria", "setting": "human macrophages [2]", "value": "recapitulated the expression pattern of the 101 genes"}, {"measurement": "IL-12 p40 secretion by macrophages", "setting": "human macrophages [3]", "value": "elicited"}, {"measurement": "IL-12 p70 production by macrophages in response to bacterial components", "setting": "human macrophages [4]", "value": "stimulated p70 production"}, {"measurement": "endotoxin levels that did not stimulate production of either cytokine (TNF-alpha, IL-12 p40)", "setting": "macrophages; LPS titration", "value": "lower than 1.4 Eu/mL"}, {"measurement": "endotoxin required to elicit IL-12 p40 relative to TNF-alpha", "setting": "macrophages; LPS titration", "value": "Roughly 100 fold"}, {"measurement": "maximum level of I-TAC secretion, dendritic cells", "setting": "dendritic cells", "value": 59, "unit": "ng/mL"}, {"measurement": "maximum level of I-TAC secretion, macrophages", "setting": "human macrophages [5]; 24 hours after exposure to LPS or lipoteichoic acid", "value": 2.8, "unit": "ng/mL"}, {"measurement": "I-TAC production by macrophages in response to bacterial components", "setting": "human macrophages [5]", "value": "induced"}]}, {"molecule": "lipoteichoic acid [LTA]", "values": [{"measurement": "induction of the macrophage activation program (gene expression changes)", "setting": "human macrophages [1]", "value": "induced the majority of the activation program"}, {"measurement": "induction of the cluster of nine genes specific to Gram-positive bacteria", "setting": "human macrophages [2]", "value": "insufficient to induce this small cluster of genes"}, {"measurement": "expression pattern of the 101 genes differentially regulated by Gram-negative versus Gram-positive bacteria", "setting": "human macrophages [2]", "value": "induced gene expression changes similar to the Gram-positive organisms"}, {"measurement": "I-TAC production by macrophages in response to bacterial components", "setting": "human macrophages [5]", "value": "not"}]}, {"molecule": "monophosphoryl lipid A", "values": [{"measurement": "induction of the macrophage activation program (gene expression changes)", "setting": "human macrophages [1]", "value": "failed to induce this set of gene expression changes"}]}, {"molecule": "B1", "values": [{"measurement": "induction of the TLR4-induced core cluster of genes by cytokines", "setting": "human macrophages [2]", "value": "failed to induce comparable gene expression changes"}]}]}
